Columns and labels:
[1] = tested on: Bad; assay: Human Apoptosis Array kit, Bad expression in K562 cells; assay type: cell-based; details: K562, 2 µM, 24 h
Procedure: (§1) The relative expression levels of 35 apoptosis-related proteins were evaluated using Human Apoptosis Array kit (R&D Systems, Abingdon, UK) in K562 cells. Proteins were extracted according to the manufacturer’s protocol from cells treated for 24 h with compound 15a (2 µM). The tool is fast, sensitive and economical, with 2.0 ml of array buffer added to each well, followed by array, The capture antibodies are retained in their specific locations, then incubated, transferred, diluted, added to Streptavidin-HRP, shaken. The platform shaker was incubated on the plate for 30 min, then the membrane was removed, 1 ml of the prepared Chemi Reagent Mix was evenly pipetted onto each membrane, incubated, the excess Chemi Reagent Mix was removed, and the membrane was placed in a self-developing film cartridge, exposed to X-ray film for 1–10 min. The positive signals seen on developed film can be quickly identified by placing the transparency overlay template on the array image and aligning it with the pairs of reference spots in three corners of each array. Creating templates, exporting files, averaging signals, finding backgrounds, comparing corresponding signals on the array to determine relative changes in apoptosis-related protein levels.

[2] = tested on: L-02; assay: MTT assay, normal hepatic L-02 cell line; assay type: cell-based; details: 72 h, human normal hepatic L-02 cell line
Procedure: (§2) The colorimetric MTT (3-(4,5-dimethylthiazol-2-yl)-2,5-diphenyltetrazolium bromide) assay was used to measure the cell viability of all of the above cell lines following treatment with target hybrids. Exponentially growing cells were added into 96-well plates at a concentration of 2000–4000 cells per well. Following attachment the cells were treated with varying concentrations (64, 16, 4, 1, 0.25, 0.0625 and 0.015625 µM) of target compounds in media and were kept for incubation for 72 h. MTT (20 µL, 5 mg/mL in PBS) was added to each well and the cells were incubated for another 3 h at 37 °C. Then the medium was removed, followed by the addition of 150 µL DMSO for each well. After that, the absorbance (OD) data of each well at 570 nm wavelength were measured by a Microplate Reader (BIO-RAD), and half inhibition rates (IC50) were calculated[59]^,[60].

[3] = tested on: Claspin; assay: Human Apoptosis Array kit, claspin expression in K562 cells; assay type: cell-based; details: K562, 2 µM, 24 h
Procedure: as §1

[4] = tested on: K562 cells; assay: Cell apoptosis assay (Annexin V-FITC/PI, flow cytometry); assay type: cell-based, human; details: 72 h
Procedure: […] 500 µL of binding buffer suspension cells, 5 µL of Annexin V-FITC, and 5 µL of PI were mixed incubated at room temperature, protected from light, and reacted for 5–15 min, then analysed with flow cytometry instrument to detect cell apoptosis.

[5] = tested on: K562; assay: MTT antiproliferative assay, K562; assay type: cell-based, human; details: 72 h, chronic myeloid leukaemia K562
Procedure: as §2

[6] = tested on: Catalase; assay: Human Apoptosis Array kit, catalase expression in K562 cells; assay type: cell-based; details: K562, 2 µM, 24 h
Procedure: as §1

[7] = tested on: HCT-116; assay: MTT antiproliferative assay, HCT-116; assay type: cell-based, human; details: 72 h, colorectal carcinoma HCT-116
Procedure: as §2

[8] = tested on: PBMC; assay: MTT assay, peripheral blood mononuclear cells; assay type: cell-based, human; details: 72 h
Procedure: as §2

[9] = tested on: B16; assay: MTT antiproliferative assay, B16; assay type: cell-based; details: 72 h, melanoma B16
Procedure: as §2

[10] = tested on: Bax; assay: Human Apoptosis Array kit, Bax expression in K562 cells; assay type: cell-based; details: K562, 2 µM, 24 h
Procedure: as §1

[11] = tested on: K562 cells; assay: Cell cycle analysis (PI staining, flow cytometry); assay type: cell-based, human; details: 72 h
Procedure: The cells in the logarithmic growth phase were digested into six-well plates. The next day, cells were treated with different concentrations (0, 0.8, 1.6, 3.2 µM) of compound 15a. After 72 h, 5 × 10^5 cells were collected and fixed with a volume fraction of 70% ethanol for 2 h (or overnight), washed the fixative with PBS, added 100 µL RNase A in 37 °C water bath for 30 min, and finally 400 µL of PI stain was added, after 30 min under the dark at 4 °C, the cytometry was used to record the red fluorescence at the excitation wavelength of 488 nm, and the cell cycle distribution of the DNA content was evaluated.

[12] = tested on: HtrA2; assay: Human Apoptosis Array kit, HtrA2 expression in K562 cells; assay type: cell-based; details: K562, 2 µM, 24 h
Procedure: as §1

[13] = tested on: HepG2; assay: MTT antiproliferative assay, HepG2; assay type: cell-based, human; details: 72 h, hepatoma HepG2
Procedure: as §2

[14] = tested on: K562 cells; assay: Hoechst 33258 staining, morphological analysis; assay type: cell-based, human
Procedure: K562 cells were incubated with different concentrations (0, 0.8, 1.6 and 3.2 µM) of 15a for a period of time, the medium containing the compound was removed, the cell smear was naturally dried, and immersed in 4% paraformaldehyde for 30 min or overnight to improve cell permeability, then soaked in PBS, washed for three times, added appropriate amount of Hoechst 33258 staining solution, fully covered, allowed to stand at room temperature for 10 min, finally immersed in PBS again, washed three times and sealed. Anti-fluorescence quenching after the liquid was sealed, the staining results were observed under a fluorescence microscope.

[15] = tested on: MCF-7; assay: MTT antiproliferative assay, MCF-7; assay type: cell-based, human; details: 72 h, breast carcinoma MCF-7
Procedure: as §2

IC50 [5]: 1.61 ± 0.18 µM
IC50 [7]: 6.74 ± 0.9 µM
IC50 [9]: 9.72 ± 0.52 µM
IC50 [13]: 4.86 ± 0.39 µM
IC50 [15]: 13.7 ± 0.33 µM
Substance: 4-((1-(6-Methoxy-4-oxo-4H-chromene-3-carboxamido)propan-2-yl)oxy)-3-(phenylsulfonyl)-1,2,5-oxadiazole 2-oxide [15a]
expression of Bad compared to the control [1]: increased expression
IC50 [2]: 36.9 ± 0.62 µM
expression of Claspin [3]: increased
apoptotic rate ([4]; K562, 0.8 µM): 16.28%
apoptotic rate ([4]; K562, 1.6 µM): 20.56%
apoptotic rate ([4]; K562, 3.2 µM): 51.87%
expression of Catalase [6]: up-regulated
IC50 [8]: > 50 µM
expression of Bax compared to the control [10]: increased expression
cells in G1 phase ([11]; K562, 0.8 µM): 48.84%
cells in G2 phase ([11]; K562, 0.8 µM): 10.71%
cells in S phase ([11]; K562, 0.8 µM): 40.45%
cells in G1 phase ([11]; K562, 1.6 µM): 41.43%
cells in G2 phase ([11]; K562, 1.6 µM): 11.89%
cells in S phase ([11]; K562, 1.6 µM): 46.68%
cells in G1 phase ([11]; K562, 3.2 µM): 36.21%
cells in G2 phase ([11]; K562, 3.2 µM): 13.51%
cells in S phase ([11]; K562, 3.2 µM): 50.28%
expression level of HtrA2 [12]: increased the expression levels
cell morphology after Hoechst 33258 staining ([14]; K562, 3.2 µM): cell membranes were ruptured and the nuclei were fragmented
cell morphology after Hoechst 33258 staining ([14]; K562, 0.8 and 1.6 µM): typical apoptotic morphology

From paper PMC7144234, “Antiproliferative chromone derivatives induce K562 cell death through endogenous and exogenous pathways” (Journal of Enzyme Inhibition and Medicinal Chemistry, 2020)
